Test results reported in US8586747B2, “3,3-dimethyl tetrahydroquinoline derivatives” (Hoffmann-La Roche Inc., priority 2010, dated 2013).

Tested on: AMP-activated protein kinase (AMPK)
Assay: ADP Quest assay for AMPK activators
Assay type: biochemical
Parameters: key: fold AMPK activation with vs without activator at 30 µM
Conditions: fold of AMPK activation to phosphorylate SAMS peptide without and with an activator at the concentration of 30 µM
Protocol: ADP Quest™ Assay for AMPK Activators
This method evaluates AMP-activated protein kinase (AMPK) activity through detecting the accumulation of ADP product using an ADP Quest kit and determining the E30 values of the small molecular AMPK activators. ADP Quest kit (DiscoveRx, Fremont, Calif.) is stored at −20° C. before use. Before an experiment, thaw the kit (include assay buffer, ADP standard solution, reagent A and reagent B) and equilibrate to room temperature. Dispense the ADP Quest reagents into single-use aliquots and store at −20° C. The compound concentrations typically range from 0 µM to 100 µM by 2-fold dilution. AMP concentrations range from […] to 1 mM as the reference control. In an assay, thaw and equilibrate the assay buffer, reagent A and reagent B to room temperature for 30 minutes prior to use. Mix ATP, SAMS peptide substrate and compound, and place them into the 384-well assay plate. Add reagent A and B based on the assay kit protocol. Incubate the assay plate at room temperature for 30 minutes after addition the mixture followed by the addition of AMPK protein (Invitrogen, CA) to initiate the AMPK phosphorylation reaction. At the same time, reactions with AMPK activator AMP in the absence of enzyme is included as blank control. The reaction fluorescence signal is monitored and recorded on Envision in kinetic mode with the excitation wavelength of 530 nm and emission wavelength of 590 nm. The E30 value, defined as the fold of AMPK activation to phosphorylate SAMS peptide without and with an activator at the concentration of 30 µM, is calculated and analyzed using Prism 5.0.

E30 | SMILES
1.34 | CC(C)(CO)Nc1cccc(C2Nc3ccc(C(=O)O)cc3CC2(C)C)c1 (stereo not shown) [Example 29, 2-[3-(2-Hydroxy-1,1-dimethyl-ethylamino)-phenyl]-3,3-dimethyl-1,2,3,4-tetrahydro-quinoline-6-carboxylic acid]
1.45 | CN(C)C(=O)N(C)c1cccc(C2Nc3ccc(C(=O)O)cc3CC2(C)C)c1 (stereo not shown) [Example 30, 3,3-Dimethyl-2-[3-(trimethyl-ureido)-phenyl]-1,2,3,4-tetrahydro-quinoline-6-carboxylic acid]
1.33 | CN(C(N)=O)c1cccc(C2Nc3ccc(C(=O)O)cc3CC2(C)C)c1 (stereo not shown) [Example 31, 3,3-Dimethyl-2-[3-(1-methyl-ureido)-phenyl]-1,2,3,4-tetrahydro-quinoline-6-carboxylic acid]
1.38 | CC(C)N(C(N)=O)c1cccc(C2Nc3ccc(C(=O)O)cc3CC2(C)C)c1 (stereo not shown) [Example 32, 2-[3-(1-Isopropyl-ureido)-phenyl]-3,3-dimethyl-1,2,3,4-tetrahydro-quinoline-6-carboxylic acid]
1.15 | CC1(C)Cc2cc(C(=O)O)ccc2NC1c1cccc(N2C(=O)OCC2(C)C)c1 (stereo not shown) [Example 34, 2-[3-(4,4-Dimethyl-2-oxo-oxazolidine-3-yl)-phenyl]-3,3-dimethyl-1,2,3,4-tetrahydro-quinoline-6-carboxylic acid]
1.41 | CC1(C)Cc2cc(C(=O)O)ccc2NC1c1cccc(NC(=O)N2CCCC2)c1 (stereo not shown) [Example 35, 3,3-Dimethyl-2-{3-[(pyrrolidine-1-carbonyl)-amino]-phenyl}-1,2,3,4-tetrahydro-quinoline-6-carboxylic acid]
1.37 | CCN(CC)C(=O)Nc1cccc(C2Nc3ccc(C(=O)O)cc3CC2(C)C)c1 (stereo not shown) [Example 36, 2-[3-(3,3-Diethyl-ureido)-phenyl}-3,3-dimethyl-1,2,3,4-tetrahydro-quinoline-6-carboxylic acid]
2.19 | CC(C)(Nc1cccc(C2Nc3ccc(Cl)cc3CC2(C)C)c1)C(=O)O (stereo not shown) [Example 37, 2-[3-(6-Chloro-3,3-dimethyl-1,2,3,4-tetrahydro-quinolin-2-yl)-phenylamino]-2-methyl-propionic acid]
2.12 | CC(C)(Nc1cccc(C2Nc3ccc(C#N)cc3CC2(C)C)c1)C(=O)O (stereo not shown) [Example 38, 2-[3-(6-Cyano-3,3-dimethyl-1,2,3,4-tetrahydro-quinolin-2-yl)-phenylamino]-2-methyl-propionic acid]
1.36 | CNC(=O)C(C)(C)Nc1cccc(C2Nc3ccc(C(=O)NS(C)(=O)=O)cc3CC2(C)C)c1 (stereo not shown) [Example 39, 2-[3-(6-Methanesulfonylaminocarbonyl-3,3-dimethyl-1,2,3,4-tetrahydro-quinolin-2-yl)-phenylamino]-2,N-dimethyl-propionamide]
1.35 | CN(C)C(=O)C(C)(C)Nc1cccc(C2Nc3ccc(C(=O)O)cc3CC2(C)C)c1 (stereo not shown) [Example 40, 2-[3-(1-Dimethylcarbamoyl-1-methyl-ethylamino)-phenyl]-3,3-dimethyl-1,2,3,4-tetrahydro-quinoline-6-carboxylic acid]
1.35 | CC(C)(Nc1cccc(C2Nc3ccc(C(=O)O)cc3CC2(C)C)c1)C(=O)N1CCOCC1 (stereo not shown) [Example 41, 2-[3-(1,1-Dimethyl-2-morpholin-4-yl-2-oxo-ethylamino)-phenyl]-3,3-dimethyl-1,2,3,4-tetrahydro-quinoline-6-carboxylic acid]
1.31 | CN1CCN(C(=O)C(C)(C)Nc2cccc(C3Nc4ccc(C(=O)O)cc4CC3(C)C)c2)CC1 (stereo not shown) [Example 42, 2-{3-[1,1-Dimethyl-2-(4-methyl-piperazin-1-yl)-2-oxo-ethylamino]-phenyl}-3,3-dimethyl-1,2,3,4-tetrahydro-quinoline-6-carboxylic acid]
1.29 | CC(C)NC(=O)C(C)(C)Nc1cccc(C2Nc3ccc(C(=O)NS(C)(=O)=O)cc3CC2(C)C)c1 (stereo not shown) [Example 43, N-isopropyl-2-[3-(6-methanesulfonylaminocarbonyl-3,3-dimethyl-1,2,3,4-tetrahydro-quinolin-2-yl)-phenylamino]-2-methyl-propionamide]
2.67 | CC1(C)Cc2cc(C(=O)O)ccc2NC1c1cccc(NC2(C(=O)O)CC2)c1 (stereo not shown) [Example 44, 2-[3-(1-Carboxy-cyclopropylamino)-phenyl]-3,3-dimethyl-1,2,3,4-tetrahydro-quinoline-6-carboxylic acid]
2.41 | CC(C)(Nc1cccc(C2Nc3ccc(C(F)(F)F)cc3CC2(C)C)c1)C(=O)O (stereo not shown) [Example 45, 2-[3-(3,3-Dimethyl-6-trifluoromethyl-1,2,3,4-tetrahydro-quinolin-2-yl)-phenylamino]-2-methyl-propionic acid]

E30 | SMILES
1.46 | CC(C)(C)c1ccc(-c2cncc(C3Nc4ccc(C(=O)O)cc4CC3(C)C)c2)cc1 (stereo not shown) [Example 46, 2-[5-(4-tert-Butyl-phenyl)-pyridin-3-yl]-3,3-dimethyl-1,2,3,4-tetrahydro-quinoline-6-carboxylic acid]
1.23 | CNC(=O)C(C)(C)Nc1cccc(C2Nc3ccc(C(=O)NS(=O)(=O)C4CC4)cc3CC2(C)C)c1 (stereo not shown) [Example 47, 2-[3-(6-Cyclopropanesulfonylaminocarbonyl-3,3-dimethyl-1,2,3,4-tetrahydro-quinolin-2-yl)-phenylamino]-2,N-dimethyl-propionamide]
2.62 | CC(C)(Nc1cccc(C2Nc3ccc(S(C)(=O)=O)cc3CC2(C)C)c1)C(=O)O (stereo not shown) [Example 48, 2-[3-(6-Methanesulfonyl-3,3-dimethyl-1,2,3,4-tetrahydro-quinolin-2-yl)-phenylamino]-2-methyl-propionic acid]
2.25 | CC(C)(C)c1ccc(-c2cc(F)cc(C3Nc4ccc(C(=O)NS(C)(=O)=O)cc4CC3(C)C)c2)cc1 (stereo not shown) [Example 49, N-[2-(4′-tert-Butyl-5-fluoro-biphenyl-3-yl)-3,3-dimethyl-1,2,3,4-tetrahydro-quinoline-6-carbonyl]-methanesulfonamide]
1.61 | CN(C)c1cc(F)cc(C2Nc3ccc(C(=O)NS(C)(=O)=O)cc3CC2(C)C)c1 (stereo not shown) [Example 50, N-[2-(3-Dimethylamino-5-fluoro-phenyl)-3,3-dimethyl-1,2,3,4-tetrahydro-quinoline-6-carbonyl]-methanesulfonamide]
1.42 | CC1(C)Cc2cc(C(=O)O)ccc2NC1c1cc(F)cc(-c2ccc(C#N)cc2)c1 (stereo not shown) [Example 51, 2-(4′-Cyano-5-fluoro-biphenyl-3-yl)-3,3-dimethyl-1,2,3,4-tetrahydro-quinoline-6-carboxylic acid]
1.35 | CC1(C)Cc2cc(C(=O)NS(=O)(=O)C3CC3)ccc2NC1c1cc(F)cc(F)c1 (stereo not shown) [Example 52, Cyclopropanesulfonic acid [2-(3,5-difluoro-phenyl)-3,3-dimethyl-1,2,3,4-tetrahydro-quinoline-6-carbonyl]-amide]
1.33 | CC1(C)Cc2cc(C(=O)O)ccc2NC1c1cc(N2CCOCC2)ccc1F (stereo not shown) [Example 53, 2-(2-Fluoro-5-morpholin-4-yl-phenyl)-3,3-dimethyl-1,2,3,4-tetrahydro-quinoline-6-carboxylic acid]
1.28 | CC1(C)Cc2cc(C(=O)NS(=O)(=O)C3CC3)ccc2NC1c1cc(N2CCOCC2)ccc1F (stereo not shown) [Example 54, Cyclopropanesulfonic acid [2-(2-fluoro-5-morpholin-4-yl-phenyl)-3,3-dimethyl-1,2,3,4-tetrahydro-quinoline-6-carbonyl]-amide]
1.28 | CC1(C)Cc2cc(C(=O)O)ccc2NC1c1cc(Cl)cc(N2CCOCC2)c1 (stereo not shown) [Example 55, 2-(3-Chloro-5-morpholin-4-yl-phenyl)-3,3-dimethyl-1,2,3,4-tetrahydro-quinoline-6-carboxylic acid]
1.26 | CC1(C)Cc2cc(C(=O)NS(=O)(=O)C3CC3)ccc2NC1c1cc(Cl)cc(N2CCOCC2)c1 (stereo not shown) [Example 56, Cyclopropanesulfonic acid [2-(3-chloro-5-morpholin-4-yl-phenyl)-3,3-dimethyl-1,2,3,4-tetrahydro-quinoline-6-carbonyl]-amide]
1.25 | CC1(C)Cc2cc(C(=O)NS(C)(=O)=O)ccc2NC1c1cc(Cl)cc(N2CCOCC2)c1 (stereo not shown) [Example 57, N-[2-(3-Chloro-5-morpholin-4-yl-phenyl)-3,3-dimethyl-1,2,3,4-tetrahydro-quinoline-6-carbonyl]-methanesulfonamide]
1.22 | CC1(C)Cc2cc(C(=O)NS(=O)(=O)C3CC3)ccc2NC1c1ccc(F)c(N2CCOCC2)c1 (stereo not shown) [Example 58, Cyclopropanesulfonic acid [2-(4-fluoro-3-morpholin-4-yl-phenyl)-3,3-dimethyl-1,2,3,4-tetrahydro-quinoline-6-carbonyl]-amide]
1.2 | CC1(C)Cc2cc(C(=O)NS(C)(=O)=O)ccc2NC1c1ccc(F)c(N2CCOCC2)c1 (stereo not shown) [Example 59, N-[2-(4-Fluoro-3-morpholin-4-yl-phenyl)-3,3-dimethyl-1,2,3,4-tetrahydro-quinoline-6-carbonyl]-methanesulfonamide]
1.2 | Cc1ccc(F)cc1C1Nc2ccc(C(=O)NS(=O)(=O)C3CC3)cc2CC1(C)C (stereo not shown) [Example 60, Cyclopropanesulfonic acid [2-(5-fluoro-2-methyl-phenyl)-3,3-dimethyl-1,2,3,4-tetrahydro-quinoline-6-carbonyl]-amide]
